According to PubChem BioAssay (NCI):
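Results reflect a 48-hour exposure of cells in 96-well plates to compound at five concentrations. GI50 marks 50% less growth. The concentration for full growth arrest is given as TGI.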

What was measured:
Assay in all cases: NCI tumour cell line growth inhibition, 48 h
CCRF-CEM leukemia = tested on: CCRF-CEM leukemia
DU-145 prostate = tested on: DU-145 prostate
HCC-2998 colon = tested on: HCC-2998 colon
IGROV1 ovarian = tested on: IGROV1 ovarian
MALME-3M melanoma = tested on: MALME-3M melanoma
NCI-H226 lung = tested on: NCI-H226 lung
NCI-H460 lung = tested on: NCI-H460 lung
NCI-H522 lung = tested on: NCI-H522 lung
SK-OV-3 ovarian = tested on: SK-OV-3 ovarian
T-47D breast = tested on: T-47D breast

| Structure (SMILES) | GI50 (CCRF-CEM leukemia) | TGI (CCRF-CEM leukemia) | GI50 (DU-145 prostate) | TGI (DU-145 prostate) | GI50 (HCC-2998 colon) | TGI (HCC-2998 colon) | GI50 (IGROV1 ovarian) | TGI (IGROV1 ovarian) | GI50 (MALME-3M melanoma) | TGI (MALME-3M melanoma) | GI50 (NCI-H226 lung) | TGI (NCI-H226 lung) | GI50 (NCI-H460 lung) | TGI (NCI-H460 lung) | GI50 (NCI-H522 lung) | TGI (NCI-H522 lung) | GI50 (SK-OV-3 ovarian) | TGI (SK-OV-3 ovarian) | GI50 (T-47D breast) | TGI (T-47D breast) |
| --- | --- | --- | --- | --- | --- | --- | --- | --- | --- | --- | --- | --- | --- | --- | --- | --- | --- | --- | --- | --- |
| CCc1cccc(C)c1NC(=O)c1sc2nc3c(cc2c1N)C(=O)CCC3 | 0.407 µM | > 35.4 µM | 0.514 µM | > 100 µM | 1.75 µM | > 100 µM | 4.75 µM | > 100 µM | 0.685 µM | 98.8 µM | 13 µM | > 100 µM | 0.371 µM | 14 µM | 0.234 µM | 3.82 µM | 0.541 µM | > 100 µM | 0.665 µM | > 78.5 µM |
| CSc1nc2sc3c(c2c(=O)n1-c1ccc(C(C)C)cc1)CCC(=O)C3 | 2.42 µM | 6.42 µM | 3.75 µM | > 100 µM | 2.47 µM | 5.02 µM | 2.02 µM | 4.88 µM | 3.11 µM | 8.25 µM | 1.99 µM | 4.68 µM | 2.27 µM | 5.1 µM | 1.96 µM | 3.72 µM | 2.63 µM | 6.92 µM | 1.81 µM | 3.74 µM |
| O=C(CCCCCCN1CC(=O)N2[C@@H](c3ccc(Cl)c(Cl)c3)c3[nH]c4ccccc4c3C[C@H]2C1=O)NO | 1.07 µM | > 33.3 µM | 4.01 µM | 15.3 µM | 3.9 µM | 8.38 µM | 1.32 µM | 5.07 µM | 2.7 µM | 14.8 µM | 4.52 µM | 12.2 µM | 2.77 µM | 9.15 µM | 3.21 µM | 10.5 µM | 4.58 µM | 9.81 µM | 1.58 µM | 25.2 µM |
| COc1cc(/C=C/C(=O)c2cccc(-n3cc(-c4ccc(Cl)cc4)[nH]c3=O)c2)cc(OC)c1OC | 5.43 µM | > 100 µM | 4.53 µM | 27 µM | 2.46 µM | 7.36 µM | 4.68 µM | 19 µM | 18.1 µM | > 100 µM | > 100 µM | > 100 µM | 3.74 µM | 11.8 µM | 4.1 µM | 21.9 µM | 31.4 µM | > 100 µM | 6.65 µM | 51.5 µM |
| O=C(Nc1cccc(-n2cc(-c3ccncc3)c(-c3cc(O)cc(Cl)c3)n2)c1)c1cc(C(F)(F)F)cc(C(F)(F)F)c1 | 2.68 µM | > 100 µM | 5.19 µM | > 100 µM | 3.12 µM | 11.6 µM | 7.96 µM | > 100 µM | 3.69 µM | 94.4 µM | 16.1 µM | > 100 µM | 3.04 µM | > 100 µM | 1.6 µM | 8.37 µM | 10.8 µM | > 100 µM | 2.99 µM | 94.5 µM |
| Nc1nc(Nc2ccccc2SSc2ccccc2Nc2nc(N)nc(C(Cl)(Cl)Cl)n2)nc(C(Cl)(Cl)Cl)n1 | 3.23 µM | 14 µM | 9.57 µM | 24.4 µM | 30.1 µM | > 100 µM | 3.49 µM | 15.7 µM | 5.9 µM | 18.6 µM | 3.49 µM | 15.9 µM | 4 µM | 14.7 µM | 2.6 µM | 10.3 µM | 26.4 µM | 91.3 µM | 2.79 µM | 39.2 µM |
| Cn1cc(C2=C(c3cccc(OC[C@@H](O)CO)c3)C(=O)NC2=O)c2ccccc21 | > 22.5 µM | > 25 µM | > 25 µM | > 25 µM | > 25 µM | > 25 µM | > 25 µM | > 25 µM | > 25 µM | > 25 µM | 16.9 µM | > 25 µM | > 25 µM | > 25 µM | 24.8 µM | > 25 µM | > 18.3 µM | > 25 µM | > 22.9 µM | > 25 µM |
| COc1ccc(/C=C(\C#N)n2nnc3c(F)cccc32)cc1 | 0.311 µM | > 100 µM | 0.503 µM | > 40.2 µM | 1.16 µM | > 47 µM | 0.388 µM | > 36.9 µM | 0.517 µM | > 100 µM | 1.98 µM | > 100 µM | 0.413 µM | > 100 µM | 0.182 µM | – | 1.05 µM | > 90 µM | 1.05 µM | > 100 µM |
| Cc1cc[n+]2c(c1)-c1cc(C)cc[n+]1CC2 | – | > 100 µM | – | > 100 µM | – | > 100 µM | – | > 100 µM | – | > 100 µM | – | > 100 µM | – | > 100 µM | – | > 92.9 µM | – | > 100 µM | – | > 100 µM |
| COC(=O)[C@H]1CCCN1C(=O)[C@H]1CCCN1C(=O)[C@@H](Cc1c[nH]c2ccccc12)NC(=S)Nc1cc(C(F)(F)F)cc(C(F)(F)F)c1 | 3.14 µM | > 100 µM | 2.6 µM | 6.79 µM | 1.82 µM | 3.3 µM | 1.88 µM | 4.16 µM | 1.75 µM | 3.31 µM | 3.08 µM | 11.7 µM | 1.96 µM | 4.1 µM | 1.73 µM | 3.51 µM | 3.01 µM | 10.1 µM | 3.27 µM | 16.4 µM |
| C[C@]12CC[C@@H]3c4cc(OC(F)F)c(OS(N)(=O)=O)cc4CC[C@H]3[C@@H]1CC[C@@H]2O | 0.398 µM | > 100 µM | 0.49 µM | > 100 µM | 1.04 µM | 14 µM | 0.646 µM | 24.9 µM | 0.485 µM | 21.6 µM | 1.8 µM | 21.8 µM | 0.401 µM | 11.3 µM | 0.274 µM | 14.8 µM | 0.683 µM | 76.9 µM | 0.445 µM | 43.2 µM |
| CC1OC(OC2C(O)CC(OC3C(O)CC(OC4CCC5(C)C(CCC6C5CC(O)C5(C)C(C7=CC(=O)OC7)CCC65O)C4)OC3C)OC2C)CC(O)C1O (centres undefined) | 0.0358 µM | 0.245 µM | 0.0308 µM | 0.0903 µM | 0.146 µM | 0.451 µM | 0.127 µM | 1.11 µM | 0.0373 µM | 0.16 µM | 0.137 µM | 0.266 µM | 0.0305 µM | 0.088 µM | 0.0225 µM | 0.0639 µM | 0.0513 µM | 0.171 µM | 0.0538 µM | 0.292 µM |
